Assay results taken from US12404260B2, “Pyridine rings containing derivatives as MALT1 inhibitors” (Janssen Pharmaceutica NV, priority 2019, dated 2025).

Legend:
[1] = test system: secretion of IL10 by OCI-LY3 ABC-DLBCL cells; test: Human IL10 Mesoscale assay (OCI-LY3); type: cell-based; details: 24 h incubation, IL10 in supernatant
Summary of the method: (§1)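 OCI-LY3 cells (100,000/well) treated 24 h at 37° C with compounds, 9-point 1:2 dilutions from 15 μM to 58.6 nM (0.3% DMSO). Supernatant IL6 and IL10 quantified by Mesoscale electrochemiluminescence immunoassay; DMSO defined maximum signal, BTK inhibitor RN486 defined maximum inhibition.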

[2] = target: T1, full-length MALT1 protein (Strep-MALT1(1-824)-His) (Homo sapiens, UniProt Q9UDY8); test: MALT1 Biochemical Protease Assay; details: 10 nM FL MALT1, 200 μM Ac-LRSR-AMC, 50 min pre-incubation, 4 h at RT; read-out: MALT1_Biochemical activity (Ac-LRSR-amc) IC50
T1 construct: full-length MALT1 protein (Strep-MALT1(1-824)-His) purified from baculovirus-infected insect cells; Strep (N); His (C); made in house; host or cells: baculovirus-infected insect cells
T1 sequence (Q9UDY8 1-824): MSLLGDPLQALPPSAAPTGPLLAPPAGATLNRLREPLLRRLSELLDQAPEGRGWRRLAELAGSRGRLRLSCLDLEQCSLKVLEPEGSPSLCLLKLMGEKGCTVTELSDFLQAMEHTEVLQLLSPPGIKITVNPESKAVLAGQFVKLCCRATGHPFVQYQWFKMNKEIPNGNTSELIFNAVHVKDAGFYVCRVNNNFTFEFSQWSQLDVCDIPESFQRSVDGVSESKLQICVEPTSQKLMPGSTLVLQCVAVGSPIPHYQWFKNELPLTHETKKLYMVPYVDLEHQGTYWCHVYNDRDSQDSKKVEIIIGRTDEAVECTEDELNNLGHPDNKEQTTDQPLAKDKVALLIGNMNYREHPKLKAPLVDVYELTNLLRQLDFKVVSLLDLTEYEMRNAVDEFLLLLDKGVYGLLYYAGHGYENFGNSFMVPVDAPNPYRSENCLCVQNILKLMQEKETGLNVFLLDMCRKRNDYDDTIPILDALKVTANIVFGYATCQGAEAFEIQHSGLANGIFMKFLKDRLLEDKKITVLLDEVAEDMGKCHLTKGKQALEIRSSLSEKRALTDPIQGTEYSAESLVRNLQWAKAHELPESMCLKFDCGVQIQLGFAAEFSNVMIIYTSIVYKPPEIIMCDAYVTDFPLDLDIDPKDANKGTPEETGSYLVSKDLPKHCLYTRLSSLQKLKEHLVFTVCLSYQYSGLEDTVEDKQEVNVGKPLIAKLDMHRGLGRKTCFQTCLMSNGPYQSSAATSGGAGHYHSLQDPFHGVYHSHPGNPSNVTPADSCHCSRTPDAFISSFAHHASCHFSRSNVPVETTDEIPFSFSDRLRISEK
Summary of the method: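 Full-length Strep-MALT1(1-824)-His from baculovirus-infected insect cells, 10 nM, preincubated with compound 50 min at RT; 200 μM Ac-LRSR-AMC (KM) in 50 mM Tris pH 7.5, 0.6 M citrate, 1 mM DTT, 1 mM EDTA, 0.05% BSA, 1.5% DMSO. Fluorescence 355/460 nm, 4 h minus time 0; 11-point 1:3 series 30 μM–0.5 nM, IC50 with Hill slope.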

[3] = test system: secretion of IL6 by OCI-LY3 ABC-DLBCL cells; test: Human IL6 Mesoscale assay (OCI-LY3); type: cell-based; details: 24 h incubation, IL6 in supernatant
Summary of the method: as §1

Structure (SMILES)	IC50 [1] [nM]	IC50 [2] [nM]	IC50 [3] [nM]	IC50 ([1]; Homo sapiens) [nM]	IC50 ([3]; Homo sapiens) [nM]
CO[C@@H](C)c1c(NC(=O)Nc2cnc(-n3nccn3)c(C#N)c2)cnc(C)c1Br [Co. 92]	1510	690	3020	–	–
CO[C@@H](C)c1c(NC(=O)Nc2cnc(-n3nccn3)c(C(F)(F)F)c2)cnc(C)c1C#N [Co. 101]	150	210	240	–	–
CO[C@H](C)c1c(NC(=O)Nc2cnc(-n3nccn3)c(C(F)(F)F)c2)cnc(C)c1Cl [Co. 112]	480	680	870	–	–
CO[C@@H](C)c1c(NC(=O)Nc2cnc(-n3nccn3)c(Cl)c2)cnc(N)c1Br [Co. 118]	1510	480	2750	–	–
COc1cncc(NC(=O)Nc2cnc(-n3nccn3)c(C(F)(F)F)c2)c1[C@H](C)OC [Co. 125]	2240	1450	4570	–	–
COc1nc(-n2nccn2)c(C(F)(F)F)cc1NC(=O)Nc1cnc(NC(C)(C)C)c(Br)c1C(C)OC (stereo not drawn) [Co. 151]	–	> 30000	–	> 15000	> 15000
COc1c(NC(C)(C)C)ncc(NC(=O)Nc2cnc(-n3nccn3)c(C(F)(F)F)c2)c1C(C)OC (stereo not drawn) [Co. 152]	–	> 30000	–	> 15000	> 15000

Now those with a lower IC50 [2], led by results:

IC50 [1] [nM]	IC50 [2] [nM]	IC50 [3] [nM]	IC50 ([1]; Homo sapiens) [nM]	IC50 ([3]; Homo sapiens) [nM]	Structure (SMILES)
90	80	140	–	–	COc1ncc(NC(=O)Nc2cnc(C)c(Br)c2[C@H](C)OC)cc1C#N [Co. 97]
60	30	90	–	–	CO[C@H](C)c1c(NC(=O)Nc2cnc(-n3nccn3)c(C(F)(F)F)c2)cnc(C)c1C#N [Co. 100]
60	40	120	–	–	CO[C@@H](C)c1c(NC(=O)Nc2cnc(-n3nccn3)c(Cl)c2)cnc(C)c1Cl [Co. 105]
60	30	90	–	–	CO[C@@H](C)c1c(NC(=O)Nc2cnc(-n3nccn3)c(C(F)(F)F)c2)cnc(C)c1Cl [Co. 111]
100	60	230	–	–	CO[C@@H](C)c1c(NC(=O)Nc2cnc(-n3ncc([C@@H](C)O)n3)c(Cl)c2)cnc(C)c1C#N [Co. 115]
50	20	90	–	–	CO[C@H](C)c1c(NC(=O)Nc2cnc(-n3nccn3)c(Cl)c2)cnc(N)c1Br [Co. 119]
40	20	60	–	–	CO[C@@H](c1c(NC(=O)Nc2cnc(-n3nccn3)c(C(F)(F)F)c2)cnc(C)c1C#N)C1CC1 [Co. 121]
130	60	140	–	–	CO[C@H](c1c(NC(=O)Nc2cnc(-n3nccn3)c(C(F)(F)F)c2)cnc(C)c1C#N)C1CC1 [Co. 122]
110	80	150	–	–	COc1cncc(NC(=O)Nc2cnc(-n3nccn3)c(C(F)(F)F)c2)c1[C@@H](C)OC [Co. 124]
